Test results reported in patent publication US11236080B2, “Protein kinase inhibitors” (Princeton Drug Discovery Inc, priority 2016, dated 2022).

Legend:
[1] = Metabolic stability in human liver microsomes; assay type: in vitro ADME; details: human liver microsomes 0.5 mg/mL, NADPH and UDPGA, 37° C., read-out: In vitro t1/2
Protocol: FIG. 1. Metabolic stability of compounds in human liver microsomal incubations. […] Concentrations at specified times were determined by LC-MS/MS.
The incubation reactions at various time points were quenched by adding 2× volumes of acetonitrile containing 100 nM reserpine. The quenched incubation samples were centrifuged at 4000 RPM for 10 min, and the supernatants injected for LC/MS/MS analysis. LC/MS/MS analysis was carried out on a AB Sciex 4000 Q Trap LC/MS/MS system coupled with Shimadzu Prominence UFLCXR 20 series (including a CBM-20A controller, two LC-20ADXR solvent delivery units, SIL-20AC HT autosampler, CTO-20A column oven, and a SPD-20A UV detector).

[2] = Lung tissue and plasma concentration ratios; assay type: in vivo, CD-1 mouse; details: mice, single oral dose 5 mg/kg, dosed together with dasatinib, all time points
Protocol: CD-1 mouse (approximate weight 30 g, N=3) were dosed by oral gavage at 10 mL/kg. Blood samples were collected into tubes containing EDTA as the anticoagulant at 1, 2, 4, 10 h post-dosing for Compound X, and predose, 1, 2, 3, 8, 10 and 24 h post-dosing for Compound XI. The plasma samples were prepared by centrifugation. Lung samples were also collected at each of the above time points. The lung samples were homogenated in 4× distilled water (v/w). The plasma samples and the homogenated lung tissue samples were mixed with 3× volumes of acetonitrile containing 100 nM reserpine as the internal standard, and centrifuged at 4000 RPM for 15 min. The supernatants were injected for LC/MS analysis which were carried out on a AB Sciex 4000 Q Trap LC/MS/MS system coupled with Shimadzu Prominence UFLCXR 20 series (including a CBM-20A controller, two LC-20ADXR solvent delivery units, SIL-20AC HT autosampler, CTO-20A column oven, and a SPD-20A UV detector). The samples were separated on a Phenomenex Columbus column (C18, 4 μm, 50×2 mm) eluted with two solvent systems: 2 mM ammonium acetate in water containing 0.1% formic acid (A) and methanol (B) at a linear gradient starting at 25%. Electrospray ionization in positive mode was used to acquire LC/MS/MS data.

half-life at 1 μM [1] [min]	ratio of lung tissue concentration to plasma concentration, compared to dasatinib [2]	SMILES
281		[2H]c1cc(C)c(NC(=O)c2cnc(Nc3cc(N4CCCCC4)nc(C)n3)s2)c(Cl)c1 [Compound I, N-(2-chloro-4-deuterio-6-methyl-phenyl)-2-[[2-methyl-6-(1-piperidyl)pyrimidin-4-yl]amino]thiazole-5-carboxamide]
	significantly lower ratios	Cc1nc(Nc2ncc(C(=O)Nc3c(C)cccc3Cl)s2)cc(N2CC[C@H](O)C2)n1 [Compound X, N-(2-chloro-6-methylphenyl)-2-[[2-methyl-6-((S)-3-hydroxypyrrolidin-1-yl)pyrimidin-4-yl]amino]thiazole-5-carboxamide]
	significantly lower ratios	Cc1nc(Nc2ncc(C(=O)Nc3c(C)cccc3Cl)s2)cc(N2CC[C@@H](O)C2)n1 [Compound XI, N-(2-chloro-6-methylphenyl)-2-[[2-methyl-6-((R)-3-hydroxypyrrolidin-1-yl)pyrimidin-4-yl]amino]thiazole-5-carboxamide]
